According to US6288089A, “Use of kinase inhibitors for treating neurodegenerative diseases” (priority 1999, dated 2001):
“Also recorded” adds a separate entry of the source.

Tests used:
[1] = system: TH+ dopamine neurons of E15 rat mesencephalic primary cultures; type: cell-based; details: 20 h serum withdrawal
[2] = system: TH+ dopamine neurons of E15 rat ventral mesencephalic cultures; details: 10 μM; 18 h serum-free
From the text: To make this determination, select rat embryonic mesencephalic cultures were double stained for both the TH dopaminergic cell marker and for nuclear characteristics indicative of apoptosis. […] Following 18 hrs under these conditions, cultures were immunostained using anti-rat TH primary antibody followed by a fluorescent (FITC-conjugated) secondary antibody. Subsequently, cells were stained with a fluorescent Hoechst 33258 DNA dye. Only those cells containing nuclear chromatin condensations (pyknotic nuclei) were scored as apoptotic. Cells containing intact nuclei -were counted as healthy. In the entire experiment, a total of 5066 TH-immunoreactive neurons were examined for nuclear chromatin condensation. Four sample groups were tested:
In this Example, experiments to study tyrosine hydroxylase-positive apoptotic cells were conducted. E15 rat ventral mesencephalic cultures were grown in F12 medium containing 5% human placental serum for 24 hrs. […] Next, cultures were washed with PBS and fixed for 2 min in 1% paraformaldehyde followed by further fixation in 70% ethanol in glycine buffer at -20° C. for 10 min. […] Cells containing intact nuclei were counted as healthy. […] In the entire experiment, total of 5066 TH-immunoreactive neurons were examined for the nuclear chromatin condensation under a fluorescence microscope.

[3] = system: transplanted embryonic rat ventral mesencephalic dopamine neurons; details: tissue preincubated 2 h with 10 μM; six weeks after transplantation
Method: Following the incubation, the tissue was immediately transplanted into the denervated rat striatum. Six weeks after transplantation, TH+ cells within the striatum were visualized following sacrifice of the animals, and cryotome sectioning and immunostaining for tyrosine hydroxylase (TH) using a polyclonal anti-rat TH primary antibody.
For the transplantation, one-half embryonic day 15 (E15) rat ventral mesencephalon was extruded into a strand using a 0.2 mm in diameter glass cannula made by heating a glass luer adaptor (Kimble-Kontes, Cat# 663500-0444). […] Following incubation, the tissue was immediately transplanted into the denervated rat striatum. The tissue strand was drawn up into a 24 g sterile stainless steel cannula attached to a microliter syringe and stereotaxically transplanted at the following coordinates (AP 0.0 mm form bregma, LAT3.0 mm form the midline, VD-3.5 to -7.5 mm below the dura) in 4.0 μl over 4 min.
Visualization of TH+ cells: Six weeks after transplantation, all animals were sacrificed, and their brains perfused with heparinized-saline followed by 4% paraformaldehyde. […] All TH-immunoreactive neurons were counted in every third section under a microscope. Abercrombie's correction was used to estimate the total number of TH+ neurons surviving in each transplant.

Structure (SMILES)	surviving TH+ neurons/cm^2 ([1]; 1 μM inhibitor, serum control […]±30, no serum 283±32) [TH+ neurons/cm^2]	concentration at which the survival effect on TH+ neurons reached its maximum ([1]; 0.1-10 μM tested) [µM]	anti-apoptotic effect in dopamine neurons after serum withdrawal [2]	number of surviving dopamine neurons (TH+ cells) compared to sham-pretreated transplants [3]
Oc1ccc(-c2nc(-c3ccc(F)cc3)c(-c3ccncc3)[nH]2)cc1 [SB 202190]	537±37	1	–	–
C[S+]([O-])c1ccc(-c2nc(-c3ccc(F)cc3)c(-c3ccncc3)[nH]2)cc1 (stereo not shown) [SB 203580]	–	–	significant (p<0.001), although less dramatic than that of PD169316; also recorded: significant (p<0.001) although less dramatic than that of PD169316	intermediate level
